Results published in article PMC6934184, “Selective DNA-PKcs inhibition extends the therapeutic index of localized radiotherapy and chemotherapy” (The Journal of Clinical Investigation, 2019).

Target: T1, MELK (Homo sapiens, UniProt Q14680)
T1 construct: purchased Thermo Fisher Scientific (Life Technologies) SelectScreen
Assay: SelectScreen Z'LYTE
Type: biochemical
How it was run: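 NU5455 was profiled across the SelectScreen Broad panel of kinase activity and binding assays. Z'LYTE reactions such as CSF1R ran at apparent Km ATP, while the Adapta CAMK1 assay used ATP listed as 10. Values are given as percent.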

T1 sequence (Q14680 whole entry): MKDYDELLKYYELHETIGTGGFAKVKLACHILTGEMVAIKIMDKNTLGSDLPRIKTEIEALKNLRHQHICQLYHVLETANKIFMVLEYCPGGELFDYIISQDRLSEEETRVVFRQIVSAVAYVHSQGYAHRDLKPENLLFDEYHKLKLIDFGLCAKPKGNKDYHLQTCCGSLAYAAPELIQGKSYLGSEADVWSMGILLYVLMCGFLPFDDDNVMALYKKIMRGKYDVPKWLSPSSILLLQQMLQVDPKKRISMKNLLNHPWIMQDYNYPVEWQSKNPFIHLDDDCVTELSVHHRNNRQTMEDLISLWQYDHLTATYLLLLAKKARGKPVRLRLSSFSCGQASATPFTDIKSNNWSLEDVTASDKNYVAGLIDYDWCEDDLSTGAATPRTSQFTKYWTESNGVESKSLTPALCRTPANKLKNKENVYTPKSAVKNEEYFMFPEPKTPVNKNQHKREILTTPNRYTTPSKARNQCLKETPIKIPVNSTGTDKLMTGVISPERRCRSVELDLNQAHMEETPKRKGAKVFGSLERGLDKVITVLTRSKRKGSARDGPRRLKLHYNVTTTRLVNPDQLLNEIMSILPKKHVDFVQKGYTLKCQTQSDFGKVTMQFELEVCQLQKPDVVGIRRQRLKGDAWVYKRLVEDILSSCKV

With CN(C(=O)CN1CCOCC1)c1ccc2sc3c(-c4cccc5c(=O)cc(N6CC7CCC(C6)O7)oc45)cccc3c2c1 [NU5455] as the compound, how does the inhibition at 1 µM read?
Its inhibition at 1 µM is -11.8%.
